{
  "source": "patent US5223413A",
  "about": "“Process for the preparation of vancomycin” (Biochin Biotechnologial Leanyvallalat, priority 1989, dated 1993)",
  "tested_on": "ATCC 6633 Bacillus subtilis strain",
  "experiment": "agar diffusion determination of antibiotic content / biological potency (USP XXII)",
  "type": "cell-based",
  "settings": "final product of Example 5, related to USP reference standard",
  "method": "The quantitative determination of the antibiotic content of the fermentation broth and final product was performed by using the agar diffusion method according to the prescriptions of USP XXII. on the ATCC 6633 Bacillus subtilis strain. The vancomycin potency values were related to the commercially available USP reference standard.",
  "note": "Counter-ions that a name gives are not always drawn.",
  "data": [
    {"smiles": "CN[C@H](CC(C)C)C(=O)N[C@H]1C(=O)N[C@@H](CC(N)=O)C(=O)N[C@H]2C(=O)N[C@H]3C(=O)N[C@H](C(=O)N[C@H](C(=O)O)c4cc(O)cc(O)c4-c4cc3ccc4O)[C@H](O)c3ccc(c(Cl)c3)Oc3cc2cc(c3O[C@@H]2O[C@H](CO)[C@@H](O)[C@H](O)[C@H]2O[C@H]2C[C@](C)(N)[C@H](O)[C@H](C)O2)Oc2ccc(cc2Cl)[C@H]1O", "note": "[vancomycin hydrochloride]", "values": [
      {"measurement": "biological potency based on microbiological determination", "result": "higher than 968 μg/mg"}
    ]}
  ]
}
